Publication PMC2359919, “Molecular targeting of retinoic acid metabolism in neuroblastoma: the role of the CYP26 inhibitor R116010 in vitro and in vivo” (British Journal of Cancer, 2007)
Where two headings read alike, the source gives them in different places.

Columns and labels:
[1] = Pharmacokinetic analysis of RA in an SH-SY5Y xenograft model (retinoid concentrations in plasma, liver, tumour by LC/MS); format: in vivo, CD-1 nude mice; conditions: for % Total retinoids, tumour, 0.5 h / % Total retinoids, tumour, 2 h / % Total retinoids, tumour, 6 h / % Total retinoids, liver, 0.5 h / % Total retinoids, liver, 2 h / % Total retinoids, liver, 6 h / % Total retinoids, plasma, 0.5 h / % Total retinoids, plasma, 2 h / % Total retinoids, plasma, 6 h / concentration at 0.5 h / concentration at 2 h / concentration at 6 h: label = retinoid measured; for concentration at 0.5 h / concentration at 2 h / concentration at 6 h: po
Description: (§1) All in vivo experiments were approved by the relevant institutional animal welfare committees, and performed according to national law. Female athymic nude mice (CD-1 nu/nu, Charles River) used for antitumour studies were maintained and handled in isolators, under specific pathogen-free conditions, at 24°C with a 12 h light, 12 h dark cycle. Tumours were generated by implantation of SH-SY5Y cells subcutaneously (s.c.) into one flank of CD-1 nude mice (1 × 10^7 cells per animal).
(§2) Treatments began when the tumours were between 7 and 10 mm in length and breadth. Retinoids and R116010 were initially dissolved in DMSO before 10- or 20-fold dilutions in PBS, respectively. For pharmacokinetic studies, the animals were dosed with ATRA or 13cisRA (each 100 mg kg^−1) orally for 0.5, 2 and 6 h. For metabolism studies, animals were treated with R116010 orally at doses of 1.25 or 2.5 mg kg^−1 either immediately before the retinoid being studied, or up to three times (over 1–2 days) before dosing with the retinoid. At termination of experiments, animals were bled under terminal anaesthesia then killed by cervical dislocation. Plasma was immediately removed from the blood by centrifugation at 1000 g for 5 min and snap-frozen in liquid nitrogen in amber Eppendorfs. Tumour and liver samples were removed and snap-frozen, wrapped in foil, in liquid nitrogen.
(§3) Cell pellets obtained from retinoid incubations were re-suspended in 2 ml cell culture medium and disrupted by passing the samples several times through a syringe and hypodermic needle (25G × 1 inches, 0.5 mm × 25 mm; Terumo, Somerset, NJ, USA). Tumour and liver tissues were re-suspended in PBS and homogenised (T25 homogeniser, IKA Laboratories, Staufen, Germany). Retinoids were extracted as described previously ([Veal et al, 2002]; [Armstrong et al, 2005b]). Samples were reconstituted in 200 μl mobile phase A (n-hexane:dichloromethane:propan-2-ol, 400 : 1 : 0.27) and analysed by normal-phase HPLC as described previously ([Veal et al, 2002]). For LC/MS analysis, samples were reconstituted in 200 μl mobile phase A (50% acetonitrile, 50% (0.2%) acetic acid, v v^−1).
(§4) Resolution of retinoids was performed with a Luna C18(2) column (3 μm, 50 mm × 2 mm) using a Perkin Elmer LC (Beaconsfield, UK) system, consisting of a vacuum degasser, two series 200 pumps, a thermostatically controlled series 200 autosampler and a Waters 2487 UV absorbance detector. Retinoic isomers and metabolites were separated by gradient reversed-phase chromatography. An injection volume of 20 μl with a flow rate of 0.2 ml min^−1 was used with mobile phase A (50% acetonitrile, 50% (0.2%) acetic acid, v v^−1) and mobile phase B (acetonitrile, 0.1% acetic acid, v v^−1). Linear gradients were employed between the specified times as follows: 0, 100% A; 5 min, 100% A; 15 min, 100% B; 20 min, 100% B; 23 min, 100% A; 35 min, 100% A. An Applied Biosystems (Warrington, UK) API-2000 LC/MS/MS triple Q (quadrupole) mass spectrometer with electrospray ionisation source, controlled by Analyst software, was operated in single quadrupole negative mode for the detection of compounds.

[2] = Effect of R116010 on retinoid concentrations (plasma, liver, tumour) in an SH-SY5Y xenograft model, LC/MS; format: in vivo, CD-1 nude mice; conditions: female, CD-1 nu/nu (athymic nude), mouse, tumour (SH-SY5Y xenograft), oral; 13cisRA 100 mg kg^−1 alone; SH-SY5Y tumour; 6 h; read-out: Tumour 13cisRA levels, control animals
Description: as §1, §2, §3, §4

[3] = after 13cisRA 100 mg kg^−1 oral, SH-SY5Y tumour
[4] = after 13cisRA 100 mg kg^−1 oral, liver
[5] = after 13cisRA 100 mg kg^−1 oral, plasma
[6] = after ATRA 100 mg kg^−1 oral, SH-SY5Y tumour
[7] = after ATRA 100 mg kg^−1 oral, liver
[8] = after ATRA 100 mg kg^−1 oral, plasma

In the case of `CC1=C(/C=C/C(C)=C/C=C/C(C)=C\C(=O)O)C(C)(C)CCC1` [13cisRA, 13-cis-retinoic acid], the “% Total retinoids, tumour, 0.5 h” value [1, 3] is reported as 90%, the “% Total retinoids, tumour, 2 h” value [1, 3] is reported as 81% and the “% Total retinoids, tumour, 6 h” value [1, 3] is reported as 49%. For the same compound, the “% Total retinoids, liver, 0.5 h” value [1, 4] was 75%, the “% Total retinoids, liver, 2 h” value [1, 4] was 58% and the “% Total retinoids, liver, 6 h” value [1, 4] was 18%. The “% Total retinoids, plasma, 0.5 h” value [1, 5] was 93%, the “% Total retinoids, plasma, 2 h” value [1, 5] was 93% and the “% Total retinoids, plasma, 6 h” value [1, 5] was 78%. For the same compound, the “Plasma % of total retinoids at all time points” value ([1]; after ATRA 100 mg kg^−1, plasma, 0.5, 2 and 6 h) was less than 10%, the “% Total retinoids, tumour, 0.5 h” value [1, 6] was 2% and the “% Total retinoids, tumour, 2 h” value [1, 6] was 3%. For the same compound, the “% Total retinoids, tumour, 6 h” value [1, 6] was 3%, the “% Total retinoids, liver, 0.5 h” value [1, 7] was 11% and the “% Total retinoids, liver, 2 h” value [1, 7] was 5%. The “% Total retinoids, liver, 6 h” value [1, 7] was 5%, the “% Total retinoids, plasma, 0.5 h” value [1, 8] was 5% and the “% Total retinoids, plasma, 2 h” value [1, 8] was 6%. The “% Total retinoids, plasma, 6 h” value [1, 8] was 8%, the concentration at 0.5 h ([1]; female, CD-1 nu/nu (athymic nude), mouse, liver, 100 mg kg^−1, after 13cisRA 100 mg kg^−1 oral, liver, read-out: Liver concentration, 0.5 h) was 3770 ± 1050 ng/g and the concentration at 2 h ([1]; female, CD-1 nu/nu (athymic nude), mouse, liver, 100 mg kg^−1, after 13cisRA 100 mg kg^−1 oral, liver, read-out: Liver concentration, 2 h) was 2330 ± 110 ng/g. It also gave a concentration at 6 h ([1]; female, CD-1 nu/nu (athymic nude), mouse, liver, 100 mg kg^−1, after 13cisRA 100 mg kg^−1 oral, liver, read-out: Liver concentration, 6 h) of 980 ± 120 ng/g, a concentration at 0.5 h ([1]; female, CD-1 nu/nu (athymic nude), mouse, liver, 100 mg kg^−1, after ATRA 100 mg kg^−1 oral, liver, read-out: Liver concentration, 0.5 h) of 420 ± 300 ng/g and a concentration at 2 h ([1]; female, CD-1 nu/nu (athymic nude), mouse, liver, 100 mg kg^−1, after ATRA 100 mg kg^−1 oral, liver, read-out: Liver concentration, 2 h) of 400 ± 80 ng/g. The concentration at 6 h ([1]; female, CD-1 nu/nu (athymic nude), mouse, liver, 100 mg kg^−1, after ATRA 100 mg kg^−1 oral, liver, read-out: Liver concentration, 6 h) was 250 ± 60 ng/g, the concentration at 0.5 h ([1]; female, CD-1 nu/nu (athymic nude), mouse, plasma, 100 mg kg^−1, after 13cisRA 100 mg kg^−1 oral, plasma, read-out: Plasma concentration, 0.5 h) was 14.2 ± 4.71 µM and the concentration at 2 h ([1]; female, CD-1 nu/nu (athymic nude), mouse, plasma, 100 mg kg^−1, after 13cisRA 100 mg kg^−1 oral, plasma, read-out: Plasma concentration, 2 h) was 19.1 ± 3.26 µM. It also gave a concentration at 6 h ([1]; female, CD-1 nu/nu (athymic nude), mouse, plasma, 100 mg kg^−1, after 13cisRA 100 mg kg^−1 oral, plasma, read-out: Plasma concentration, 6 h) of 4.69 ± 0.52 µM, a concentration at 0.5 h ([1]; female, CD-1 nu/nu (athymic nude), mouse, plasma, 100 mg kg^−1, after ATRA 100 mg kg^−1 oral, plasma, read-out: Plasma concentration, 0.5 h) of 0.67 ± 0.55 µM and a concentration at 2 h ([1]; female, CD-1 nu/nu (athymic nude), mouse, plasma, 100 mg kg^−1, after ATRA 100 mg kg^−1 oral, plasma, read-out: Plasma concentration, 2 h) of 1.55 ± 0.33 µM. For the same compound, the concentration at 6 h ([1]; female, CD-1 nu/nu (athymic nude), mouse, plasma, 100 mg kg^−1, after ATRA 100 mg kg^−1 oral, plasma, read-out: Plasma concentration, 6 h) was 1.53 ± 0.66 µM, the Tmax ([1]; female, CD-1 nu/nu (athymic nude), mouse, plasma, 100 mg kg^−1 oral, sampled at 0.5, 2, 6 h, read-out: Time of peak plasma levels) was 2 h and the concentration at 0.5 h ([1]; female, CD-1 nu/nu (athymic nude), mouse, tumour (SH-SY5Y xenograft), 100 mg kg^−1, after 13cisRA 100 mg kg^−1 oral, SH-SY5Y tumour, read-out: Tumour concentration, 0.5 h) was 2000 ± 670 ng/g. The concentration at 2 h ([1]; female, CD-1 nu/nu (athymic nude), mouse, tumour (SH-SY5Y xenograft), 100 mg kg^−1, after 13cisRA 100 mg kg^−1 oral, SH-SY5Y tumour, read-out: Tumour concentration, 2 h) was 2120 ± 570 ng/g, the concentration at 6 h ([1]; female, CD-1 nu/nu (athymic nude), mouse, tumour (SH-SY5Y xenograft), 100 mg kg^−1, after 13cisRA 100 mg kg^−1 oral, SH-SY5Y tumour, read-out: Tumour concentration, 6 h) was 280 ± 40 ng/g and the concentration at 0.5 h ([1]; female, CD-1 nu/nu (athymic nude), mouse, tumour (SH-SY5Y xenograft), 100 mg kg^−1, after ATRA 100 mg kg^−1 oral, SH-SY5Y tumour, read-out: Tumour concentration, 0.5 h) was 70 ± 70 ng/g. For the same compound, the concentration at 2 h ([1]; female, CD-1 nu/nu (athymic nude), mouse, tumour (SH-SY5Y xenograft), 100 mg kg^−1, after ATRA 100 mg kg^−1 oral, SH-SY5Y tumour, read-out: Tumour concentration, 2 h) was 280 ± 70 ng/g, the concentration at 6 h ([1]; female, CD-1 nu/nu (athymic nude), mouse, tumour (SH-SY5Y xenograft), 100 mg kg^−1, after ATRA 100 mg kg^−1 oral, SH-SY5Y tumour, read-out: Tumour concentration, 6 h) was 150 ± 30 ng/g and the concentration at 6 h [2] was 220 ± 40 ng/g.
